Experimental data as given in patent publication US10588844B2, “Process for preparing tripeptide containing oleanolic acid and its therapeutic applications thereof” (priority 2017, dated 2020).
Converted amounts (≈) assume the structure as drawn.

What was measured:
[1] = test system: Human keratinocytes (HaCAT); experiment: ROS scavenging in keratinocytes, UV induced oxidative stress (DCFH-DA); type: cell-based; settings: 6.25 μg/ml
Procedure: (§1) Cells: Human keratinocytes (HaCAT)—cells were maintained in fibroblast media (Gibco) at 37° C. in a humidified 5% CO2 incubator.
Reagents: Keratinocyte media (Gibco) DCFH-DA Instrument: FluoStar Optima microplate reader.
(§2) Reactive oxygen species include a number of molecules that damage DNA and RNA and oxidize proteins and lipids (lipid peroxydation). These reactive molecules contain an oxygen atom/molecule and include H2O2 (hydrogen peroxide), NO (nitric oxide), O2^− ([…]), peroxynitrite (ONOO^−), hydrochlorous acid (HOCl), and hydroxyl radical (OH). 5-(and 6)-chloromethyl-20, 70-dichlorohydrofluorescein diacetate (CM-H2DCFDA) freely permeates the plasma membrane and is hydrolyzed in the cytosol to form the DCFH carboxylate anion. Oxidation results in the formation of fluorescent DCF, which is maximally excited at 495 nm and emits at 520 nm.
Keratinocytes were seeded at 50,000 cells per well in 96 well black plates and allowed to grow as a monolayer for 24 hours. Cells were pre-treated with different concentration of Oleanoyl-KVK for one hour. The plate was exposed to UVA radiation for 1 hour. Freshly prepared DCFH-DA reagent was added to all the wells (2 ug/well). The plate was incubated at 37° C. for 30 minutes. Fluorescence was recorded at 485:520, Ex: Em wavelength in FluoStar Optima microplate reader.

[2] = test system: Collagenase Type IV from Clostridium histolyticum; experiment: Anti collagenase activity (EnzChek DQ gelatin fluorescence assay); type: biochemical
Source text: Collagenase is one of the matrix metalloprotease, which digest collagen and other components of the extra cellular matrix (ECM). The ECM serves as a scaffold to stabilize the skin structure, and also helps in proliferation and metabolic functions of the skin cells. Loss of collagen leads to wrinkles and sagging of skin. The principle of the assay of collagenase inhibition is based on the fact that the substrate DQ™ gelatine is conjugated to fluorecein—a fluorescent compound. In DQ™ gelatine, fluorescence is quenched. DQ™ gelatine is efficiently digested by collagenases to yield a fluorescent compound which can be measured. The increase in fluorescence is proportional to enzyme activity. In the presence of an anti collagenase compound the amount of fluorescence will be decreased for a fixed concentration of enzyme and substrate.
• Equipment-BMG FLUOstar Optima (fluorescent Microplate reader) • Reagents: Phosphate buffer (pH 7.4) • Collagenase Enzyme assay kit (Enzchek® collagenase, gelatinase assay kit, Invitrogen, USA) • Microtitre plates—96 well microtitre plates (black)—Corning, USA
The assay was performed in a 96 well black microtitre plate. […] 100 μl of the Collagenase enzyme solution (final concentration-0.4 U/ml) was added and the fluorescence intensity was measured at Em: 485 nm and Ex: 520 nm after 30 minutes. Enzyme activity of control (buffer) was recorded. […]

[3] = test system: Human keratinocytes (HaCAT); experiment: ROS scavenging in keratinocytes, heavy metal induced oxidative stress; type: cell-based; settings: concentration of 12.5% (so in the source)
Procedure: as §1, §2
Keratinocytes were seeded at 50,000 cells per well in 96 well black plates and allowed to grow as a monolayer for 24 hours. Cells were pre-treated with different concentration of Oleanoyl-KVK for one hour. […] Freshly prepared DCFH-DA reagent was added to all the wells (2 ug/well). The plate was incubated at 37° C. for 30 minutes. Fluorescence was recorded at 485:520, Ex: Em wavelength in FluoStar Optima microplate reader.

[4] = test system: Human keratinocytes (HaCAT); experiment: Protection against UVB induced apoptosis, DNA damage and death (annexin-FITC/PI flow cytometry); type: cell-based; settings: UVB exposed HaCAT
Procedure: Cells: Human keratinocytes (HaCAT)—cells were maintained as a monolayer culture in Dulbeccos modified minimal essential medium (DMEM) Life technologies, CA, USA) supplemented with 10% (v/v) heat-inactivated foetal bovine serum (FBS; GIBCO/Invitrogen, Carlsbad, Calif.), 100 units/mL penicillin and 100 μg/mL streptomycin (Life technologies) at 37° C. in a humidified 5% CO2 incubator.
Reagents: Dulbeccos modified minimal essential medium (DMEM), Fetal bovine serum (FBS), Annexin-FITC, Propidium Iodide-Apoptosis detection kit, Biovision, USA.
Instrument: Flow Cytometry (BD-FACS-Celesta).
Cells (3×10^5) were pre-treated with different concentrations of test sample for one hour and exposed to UVB. Cells were exposed to UVB rays for 10 min and incubated for 16 hours in DMEM with 2% serum. Cells were labelled with annexin-FITC and propidium iodide […] for 10 minutes in dark and analyzed using flow cytometer (BD FACS-Celesta).

keratinocytes = experiment: Gene expression analysis in keratinocytes (quantitative RT-PCR); type: cell-based, human; settings: 6.25 μg/ml, 24 hours
Procedure: (§3) Human dermal fibroblasts and keratinocytes were cultured in 6 well microtiter plates in the presence of 6.25 μg/ml oleanoyl KVK for 24 hours. Untreated cells were used as control. At the end of incubation time, the cells were lysed and RNA was extracted. […] Extracted RNA was treated with DNAse I to remove any contaminating DNA and again extracted using phenol: chloroform: isoamyl alcohol extraction ([…]). Quality of RNA was determined by checking the absorbance at 260/280 nm using a Nanodrop (Thermo). 2 μg of total RNA was taken for cDNA synthesis using Super Script III First-Strand Synthesis System (Life Technologies). Quantitative RT-PCR analysis was performed to determine the expression of brown fat specific genes in Roche Light cycler 96 using SYBR Green master mix (Thermo Scientific). β actin was used as a house keeping gene. The relative RNA abundance of the genes was normalized to the housekeeping β actin gene and expressed as delta delta CT (equivalent to fold change transformed by Log2).

THP-1 cells = experiment: Cell viability of THP-1 cells in the anti inflammatory assay; type: cell-based, human
[5] = test system: keratinocytes exposed to oxidative stress; experiment: Gene expression in keratinocytes exposed to oxidative stress (quantitative RT-PCR); type: cell-based, human; settings: cells exposed to oxidative stress
Procedure: as §3

collagen in fibroblasts = experiment: Collagen production / collagen staining in fibroblasts; type: cell-based, human
[6] = target: T1, Elastase enzyme from pig pancreas (Sus scrofa, UniProt P00772); experiment: Anti elastase activity (EnzChek DQ elastin fluorescence assay); type: biochemical
T1 construct: purchased; host or cells: pig pancreas
T1 sequence (P00772 27-266): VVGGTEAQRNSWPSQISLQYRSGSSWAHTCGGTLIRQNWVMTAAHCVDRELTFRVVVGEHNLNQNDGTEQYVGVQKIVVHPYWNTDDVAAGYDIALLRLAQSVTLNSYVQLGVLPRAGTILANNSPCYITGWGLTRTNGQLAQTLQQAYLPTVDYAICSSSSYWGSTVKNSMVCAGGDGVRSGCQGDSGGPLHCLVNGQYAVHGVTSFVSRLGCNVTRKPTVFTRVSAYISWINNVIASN
Source text: Elastase is one of the […], which digest elastin and other components of the extra cellular matrix and is important both for normal skin development. If this enzyme is not regulated by inhibitor proteins results in wrinkling of skin, premature ageing and carcinogenesis. The Anti-Elastase assay by Enz Chek elastase assay kit determines the elastase inhibitory activity of the products. The assays were done using the EnzChek elastase assay kit. The substrate is DQ elastin soluble bovine neck ligament. DQ elastin is labelled with BODIPY FL dye. The non-fluorescent substrate can be digested by elastase to yield highly fluorescent fragments and in the presence of inhibitor, the fluorescence intensity is quenched. The fluorescence intensity was measured in a microplate reader ([…].)
The assay was performed in a 96 well black microtitre plate. […] 100 μl of the Elastase enzyme solution (final concentration-0.1 U/ml) was added and the fluorescence intensity was measured at Em: 485 nm and Ex: 520 nm after 30 minutes. Enzyme activity of control (buffer) was recorded.
[formula] • B—Fluorescence in the presence of enzyme • BC—Fluorescence in the absence of enzyme activity • T—Fluorescence of enzyme activity in the presence of inhibitor • C—Fluorescence of the inhibitor alone Result

[7] = test system: TNF-α secretion by THP-1 human monocytes; experiment: Anti inflammatory activity: LPS induced TNF-α secretion in THP-1 cells (ELISA); type: cell-based; settings: for % Inhibition (TNF-α): LPS stimulated THP-1, 24 hour
Procedure: Anti inflammatory activity was examined using human monocyte/macrophage cell line THP-1. Monocytes respond to lipo-polysaccharides (LPS) by secreting pro-inflammatory cytokines. Tumour necrosis factor (TNF-α) is one of the principle cytokine which triggers a cascade of inflammatory reactions. The concentration of TNF-α was measured using an Enzyme linked Immunosorbent assay (ELISA). Reduction in TNF-α concentration indicates an anti inflammatory activity of the compound.
Cells: THP1-human monocytes purchased from American Type Culture Collection (ATCC, Manassas, Va.) and maintained as a monolayer culture in Rosewell park memorial institute Medium (RPMI Life technologies, CA, USA) supplemented with 10% (v/v) heat-inactivated foetal bovine serum (FBS; GIBCO/Invitrogen, Carlsbad, Calif.), 100 units/mL penicillin and 100 μg/mL streptomycin (Life technologies) at 37° C. in a humidified 5% CO2 incubator.
ELISA kit: Human TNF ELISA kit, Krishgen Biosciences, USA
1×10^5 THP-1 cells were stimulated with 100 ng with lipopolysacharide (LPS, 0.1 μg/mL) to induce TNF-α secretion. Cells were pre treated with different concentrations of oleanoyl KVK before LPS treatment. The cell supernatants were collected 24 hour after treatment and secreted TNF-α as estimated by cytokine ELISA as described by the manufacturer. Un-stimulated cells were used as negative control. The limit of detection was <1 pg/mL.

Human dermal fibroblasts [8] = experiment: Proliferation of fibroblasts (SRB assay); type: cell-based; settings: concentration of 12.5% (so in the source), 72 hours
Procedure: Human dermal fribroblasts were seeded at a density of 5×10^3 cells/well in DMEM 10% FBS and antibiotics in 96 well plate and allowed to form a monolayer in a humidified incubator at 37° C. and 5% CO2 atmosphere for 24 hours. Cells were treated with different concentration of the extract for 72 hours to assess the cytotoxicity. The viability of fibroblasts were determined by SRB assay (Nature protocols, 2006, 1, 3, 2112-16). Cells in DMEM with 0.1% DMSO was used as […] while media without cells were used as negative control

Human dermal fibroblasts [9] = experiment: Gene expression analysis in dermal fibroblasts (quantitative RT-PCR); type: cell-based; settings: 6.25 μg/ml, 24 hours
Procedure: as §3

[10] = test system: TGF-β secretion by fibroblasts; experiment: TGF-β concentration in fibroblast culture supernatant; type: cell-based, human

CC(C)[C@H](NC(=O)[C@H](CCCCN)NC(=O)[C@]12CCC(C)(C)C[C@H]1C1=CC[C@@H]3[C@@]4(C)CC[C@H](O)C(C)(C)[C@@H]4CC[C@@]3(C)[C@]1(C)CC2)C(=O)N[C@@H](CCCCN)C(=O)O [Oleanoyl-KVK, Lysine-Valine-Lysine (KVK) conjugated to Oleanolic acid]
ROS scavenging activity, UV induced stress [1]: 17.1%
inhibition of collagenase enzyme activity ([2]; 250 μg/ml): 100%
IC50 anti collagenase activity ([2]; DQ gelatin substrate, 30 minutes): 48.8 µg/mL
ROS scavenging, induced by heavy metals [3]: 20.4%
percent protection against UV induced DNA damage and death ([4]; 12.5 μg/ml): 47.9%
reduction in late apoptosis [4]: concentration dependent reduction in late apoptosis
increase in live cells ([4]; 12.5 μg/ml): highest increase in live cells
reduction in early apoptosis ([4]; maximum at 12.5 μg/ml): concentration dependent reduction in early apoptosis
gene expression in keratinocytes (FIG. 10: collagen, Elastin, TGF-β, hyaluronan synthase, epidermal growth factor) (keratinocytes): increased
Cell viability (THP-1 cells; 1.56 μg/ml): 100%
Cell viability (THP-1 cells; 3.12 μg/ml): 100%
Cell viability (THP-1 cells; 6.25 μg/ml): 100%
Cell viability (THP-1 cells; 12.5 μg/ml): 100%
expression level of matrix metalloprotease 9 [5]: down regulated
expression level of tumor necrosis factor α [5]: down regulated
increase in collagen staining in fibroblasts (collagen in fibroblasts): 22.8%
inhibition at 250 µg/mL ([6]; 250 μg/ml): 98%
IC50 ([6]; DQ elastin substrate, 30 minutes, read-out: IC50 anti elastase activity (printed: anti collagenase activity) (converted)): 77 µM
% Inhibition (TNF-α) ([7]; 1.56 μg/ml): 12.14%
% Inhibition (TNF-α) ([7]; 3.12 μg/ml): 12.53%
% Inhibition (TNF-α) ([7]; 6.25 μg/ml): 31.01%
% Inhibition (TNF-α) ([7]; 12.5 μg/ml): 71.03%
IC50 anti inflammatory activity ([7]; LPS stimulated THP-1, TNF-α ELISA): 9.09 µg/mL (≈ 11.2 µM)
increase in proliferation of fibroblasts (Human dermal fibroblasts [8]): 42.2%
expression level of TGF-β (Human dermal fibroblasts [9]): increased
expression level of collagen (Human dermal fibroblasts [9]): increased
expression level of hyaluronan synthase (Human dermal fibroblasts [9]): increased
TGF-β secretion by fibroblasts [10]: dose dependent increase
